Measurements from patent EP0238060B1, “Cephalosporin derivatives, processes for their preparation and antibacterial agents” (Banyu Pharmaceutical Co., Ltd., priority 1986, dated 1987).
Converted amounts (≈) assume the structure as drawn.

Columns and labels:
Assay in all cases: In vitro antibacterial activity, agar plate dilution method (MIC)
Ps.cepacia 23 = assay type: cell-based, Pseudomonas cepacia; settings: Burkholderia cepacia; Ps.cepacia 23; Mueller Hinton agar, inoculum 10⁶ CFU/ml, 37°C, 16 hours; read-out: Minimum Inhibitory Concentration (MIC: µg/ml)
Method: (§1) The in vitro antibacterial activities of the compounds of the present invention against various microorganisms, were measured by the following agar plate dilution method. One platinum loopfull of each test microorganism incubated overnight in Mueller Hinton broth, was inoculated to Mueller Hinton agar (inoculum size: l0⁶ CFU/ml). Such culture media containing various antibiotics in various concentrations were prepared. After incubation at 37°C for l6 hours, the minimum inhibitory concentrations (MIC: µg/ml) were measured. As comparative compounds, Cefotaxime, Ceftazidime and the compounds of Reference Examples l to 4 were employed.

E.coli CSH2 (RK1) = assay type: cell-based; settings: Escherichia coli, 16 h, read-out: Minimum Inhibitory Concentration (MIC: µg/ml)
Method: as §1

S.epidermidis IAM12012 = assay type: cell-based; settings: Staphylococcus epidermidis; S.epidermidis IAM12012; Mueller Hinton agar, inoculum 10⁶ CFU/ml, 37°C, 16 hours; read-out: Minimum Inhibitory Concentration (MIC: µg/ml)
Method: as §1

P.vulgaris HX-19 = assay type: cell-based; settings: Proteus vulgaris, HX19; P.vulgaris HX-19; Mueller Hinton agar, inoculum 10⁶ CFU/ml, 37°C, 16 hours; read-out: Minimum Inhibitory Concentration (MIC: µg/ml)
Method: as §1

C.freundii GN346/16 = assay type: cell-based; settings: Citrobacter freundii; C.freundii GN346/16; Mueller Hinton agar, inoculum 10⁶ CFU/ml, 37°C, 16 hours; read-out: Minimum Inhibitory Concentration (MIC: µg/ml)
Method: as §1

S.aureus JS1 = assay type: cell-based; settings: Staphylococcus aureus; S.aureus JS1 (β-Lactamase-producing strain); Mueller Hinton agar, inoculum 10⁶ CFU/ml, 37°C, 16 hours; read-out: Minimum Inhibitory Concentration (MIC: µg/ml)
Method: as §1

P.vulgaris No. 33 = assay type: cell-based; settings: Proteus vulgaris; P.vulgaris No. 33 (β-Lactamase-producing strain); Mueller Hinton agar, inoculum 10⁶ CFU/ml, 37°C, 16 hours; read-out: Minimum Inhibitory Concentration (MIC: µg/ml)
Method: as §1

E.coli GN5482 = assay type: cell-based; settings: Escherichia coli; E.coli GN5482 (β-Lactamase-producing strain); Mueller Hinton agar, inoculum 10⁶ CFU/ml, 37°C, 16 hours; read-out: Minimum Inhibitory Concentration (MIC: µg/ml)
Method: as §1

S.aureus BB5703 = assay type: cell-based; settings: Staphylococcus aureus; S.aureus BB5703; Mueller Hinton agar, inoculum 10⁶ CFU/ml, 37°C, 16 hours; read-out: Minimum Inhibitory Concentration (MIC: µg/ml)
Method: as §1

Ps.aeruginosa AK 109 = assay type: cell-based; settings: Pseudomonas aeruginosa, AK109; Ps.aeruginosa AK 109; Mueller Hinton agar, inoculum 10⁶ CFU/ml, 37°C, 16 hours; read-out: Minimum Inhibitory Concentration (MIC: µg/ml)
Method: as §1

E.cloacae 963 = assay type: cell-based; settings: Enterobacter cloacae; E.cloacae 963; Mueller Hinton agar, inoculum 10⁶ CFU/ml, 37°C, 16 hours; read-out: Minimum Inhibitory Concentration (MIC: µg/ml)
Method: as §1

E.coli CSH(RE45) = assay type: cell-based; settings: Escherichia coli, 16 h, read-out: Minimum Inhibitory Concentration (MIC: µg/ml)
Method: as §1

M.luteus ATCC9341 = assay type: cell-based; settings: Micrococcus luteus; M.luteus ATCC9341; Mueller Hinton agar, inoculum 10⁶ CFU/ml, 37°C, 16 hours; read-out: Minimum Inhibitory Concentration (MIC: µg/ml)
Method: as §1

Ps.aeruginosa IFO3445 = assay type: cell-based; settings: Pseudomonas aeruginosa; Ps.aeruginosa IFO3445; Mueller Hinton agar, inoculum 10⁶ CFU/ml, 37°C, 16 hours; read-out: Minimum Inhibitory Concentration (MIC: µg/ml)
Method: as §1

S.marcescens No. 16-2 = assay type: cell-based; settings: Serratia marcescens, NO.162; S.marcescens No. 16-2 (β-Lactamase-producing strain); Mueller Hinton agar, inoculum 10⁶ CFU/ml, 37°C, 16 hours; read-out: Minimum Inhibitory Concentration (MIC: µg/ml)
Method: as §1

K.oxytoca GN10650 = assay type: cell-based; settings: Klebsiella oxytoca; K.oxytoca GN10650 (β-Lactamase-producing strain); Mueller Hinton agar, inoculum 10⁶ CFU/ml, 37°C, 16 hours; read-out: Minimum Inhibitory Concentration (MIC: µg/ml)
Method: as §1

A.calcoaceticus No. 4 = assay type: cell-based; settings: Acinetobacter calcoaceticus; A.calcoaceticus No. 4; Mueller Hinton agar, inoculum 10⁶ CFU/ml, 37°C, 16 hours; read-out: Minimum Inhibitory Concentration (MIC: µg/ml)
Method: as §1

E.coli NIHJ JC2 = assay type: cell-based; settings: Escherichia coli, NIHJJC2; E.coli NIHJ JC2; Mueller Hinton agar, inoculum 10⁶ CFU/ml, 37°C, 16 hours; read-out: Minimum Inhibitory Concentration (MIC: µg/ml)
Method: as §1

M.morganii GN5407 = assay type: cell-based; settings: Morganella morganii; M.morganii GN5407 (β-Lactamase-producing strain); Mueller Hinton agar, inoculum 10⁶ CFU/ml, 37°C, 16 hours; read-out: Minimum Inhibitory Concentration (MIC: µg/ml)
Method: as §1

C.freundii GN346 = assay type: cell-based; settings: Citrobacter freundii; C.freundii GN346 (β-Lactamase-producing strain); Mueller Hinton agar, inoculum 10⁶ CFU/ml, 37°C, 16 hours; read-out: Minimum Inhibitory Concentration (MIC: µg/ml)
Method: as §1

Ps.aeruginosa AKR17 = assay type: cell-based; settings: Pseudomonas aeruginosa; Ps.aeruginosa AKR17; Mueller Hinton agar, inoculum 10⁶ CFU/ml, 37°C, 16 hours; read-out: Minimum Inhibitory Concentration (MIC: µg/ml)
Method: as §1

K.pneumoniae No. 42 = assay type: cell-based; settings: Klebsiella pneumoniae; K.pneumoniae No. 42 (β-Lactamase-producing strain); Mueller Hinton agar, inoculum 10⁶ CFU/ml, 37°C, 16 hours; read-out: Minimum Inhibitory Concentration (MIC: µg/ml)
Method: as §1

S.aureus 209P NIHJ-JC1 = assay type: cell-based; settings: Staphylococcus aureus; S.aureus 209P NIHJ-JC1; Mueller Hinton agar, inoculum 10⁶ CFU/ml, 37°C, 16 hours; read-out: Minimum Inhibitory Concentration (MIC: µg/ml)
Method: as §1

K.pneumoniae PCI-602 = assay type: cell-based; settings: Klebsiella pneumoniae, PCI602; K.pneumoniae PCI-602; Mueller Hinton agar, inoculum 10⁶ CFU/ml, 37°C, 16 hours; read-out: Minimum Inhibitory Concentration (MIC: µg/ml)
Method: as §1

S.marcescens IAM 1184 = assay type: cell-based; settings: Serratia marcescens, IAM1184; S.marcescens IAM 1184; Mueller Hinton agar, inoculum 10⁶ CFU/ml, 37°C, 16 hours; read-out: Minimum Inhibitory Concentration (MIC: µg/ml)
Method: as §1

E.cloacae Nek 39 = assay type: cell-based; settings: Enterobacter cloacae, NEK39; E.cloacae Nek 39 (β-Lactamase-producing strain); Mueller Hinton agar, inoculum 10⁶ CFU/ml, 37°C, 16 hours; read-out: Minimum Inhibitory Concentration (MIC: µg/ml)
Method: as §1

Ps.maltophilia GN 12873 = assay type: cell-based, Pseudomonas maltophilia; settings: Stenotrophomonas maltophilia, GN12873; Ps.maltophilia GN 12873 (β-Lactamase-producing strain); Mueller Hinton agar, inoculum 10⁶ CFU/ml, 37°C, 16 hours; read-out: Minimum Inhibitory Concentration (MIC: µg/ml)
Method: as §1

Structure (SMILES) | MIC (Ps.cepacia 23) | MIC (E.coli CSH2 (RK1)) | MIC (S.epidermidis IAM12012) | MIC (P.vulgaris HX-19) | MIC (C.freundii GN346/16) | MIC (S.aureus JS1) | MIC (P.vulgaris No. 33) | MIC (E.coli GN5482) | MIC (S.aureus BB5703) | MIC (Ps.aeruginosa AK 109) | MIC (E.cloacae 963) | MIC (E.coli CSH(RE45)) | MIC (M.luteus ATCC9341) | MIC (Ps.aeruginosa IFO3445) | MIC (S.marcescens No. 16-2) | MIC (K.oxytoca GN10650) | MIC (A.calcoaceticus No. 4) | MIC (E.coli NIHJ JC2) | MIC (M.morganii GN5407) | MIC (C.freundii GN346) | also measured
CO/N=C(\C(=O)NC1C(=O)N2C(C(=O)[O-])=C(C[n+]3ccc4cc(O)c(O)cc4c3)CSC12)c1csc(N)n1 (stereo not drawn) [Ex. 1, 7-[2-(2-aminothiazol-4-yl)-2-methoxyiminoacetamido]-3-(6,7-dihydroxy-2-isoquinolinio)-methyl-3-cephem-4-carboxylate] | 0.78 µg/mL (≈ 1.4 µM) | < 0.006 µg/mL | 0.78 µg/mL (≈ 1.4 µM) | < 0.006 µg/mL | 0.78 µg/mL (≈ 1.4 µM) | 25 µg/mL (≈ 44.9 µM) | 0.1 µg/mL (≈ 0.18 µM) | 0.39 µg/mL (≈ 0.701 µM) | 3.12 µg/mL (≈ 5.61 µM) | 0.78 µg/mL (≈ 1.4 µM) | 0.025 µg/mL (≈ 0.0449 µM) | 0.78 µg/mL (≈ 1.4 µM) | 0.1 µg/mL (≈ 0.18 µM) | 0.78 µg/mL (≈ 1.4 µM) | 3.12 µg/mL (≈ 5.61 µM) | 0.78 µg/mL (≈ 1.4 µM) | 0.2 µg/mL (≈ 0.359 µM) | 0.05 µg/mL (≈ 0.0898 µM) | 0.1 µg/mL (≈ 0.18 µM) | 25 µg/mL (≈ 44.9 µM) | MIC (Ps.aeruginosa AKR17): 100 µg/mL (≈ 180 µM); MIC (K.pneumoniae No. 42): 0.025 µg/mL (≈ 0.0449 µM); MIC (S.aureus 209P NIHJ-JC1): 1.56 µg/mL (≈ 2.8 µM); MIC (K.pneumoniae PCI-602): < 0.006 µg/mL; MIC (S.marcescens IAM 1184): 0.0125 µg/mL (≈ 0.0225 µM); MIC (E.cloacae Nek 39): 0.1 µg/mL (≈ 0.18 µM); MIC (Ps.maltophilia GN 12873): > 100 µg/mL
CC(C)ON=C(C(=O)NC1C(=O)N2C(C(=O)[O-])=C(C[n+]3ccc4cc(O)c(O)cc4c3)CS[C@H]12)c1csc(N)n1 (stereo partly drawn) [Ex. 2, 7-[2-(2-aminothiazol-4-yl)-2-isopropoxyiminoacetamido]-3-(6,7-dihydroxy-2-isoquinolinio)methyl-3-cephem-4-carboxylate] | 0.1 µg/mL (≈ 0.171 µM) | < 0.006 µg/mL | 0.78 µg/mL (≈ 1.33 µM) | < 0.006 µg/mL | 0.78 µg/mL (≈ 1.33 µM) | 12.5 µg/mL (≈ 21.4 µM) | 0.05 µg/mL (≈ 0.0855 µM) | 0.39 µg/mL (≈ 0.667 µM) | 6.25 µg/mL (≈ 10.7 µM) | 0.78 µg/mL (≈ 1.33 µM) | 0.025 µg/mL (≈ 0.0428 µM) | 0.39 µg/mL (≈ 0.667 µM) | 0.1 µg/mL (≈ 0.171 µM) | 0.78 µg/mL (≈ 1.33 µM) | 0.78 µg/mL (≈ 1.33 µM) | 0.39 µg/mL (≈ 0.667 µM) | 0.2 µg/mL (≈ 0.342 µM) | 0.1 µg/mL (≈ 0.171 µM) | 0.05 µg/mL (≈ 0.0855 µM) | 50 µg/mL (≈ 85.5 µM) | MIC (Ps.aeruginosa AKR17): 25 µg/mL (≈ 42.8 µM); MIC (K.pneumoniae No. 42): 0.025 µg/mL (≈ 0.0428 µM); MIC (S.aureus 209P NIHJ-JC1): 1.56 µg/mL (≈ 2.67 µM); MIC (K.pneumoniae PCI-602): < 0.006 µg/mL; MIC (S.marcescens IAM 1184): 0.0125 µg/mL (≈ 0.0214 µM); MIC (E.cloacae Nek 39): 0.05 µg/mL (≈ 0.0855 µM); MIC (Ps.maltophilia GN 12873): 100 µg/mL (≈ 171 µM)
